Assay results published in ChEMBL document CHEMBL1155087, “Discovery of novel hydroxy-thiazoles as HIF-alpha prolyl hydroxylase inhibitors: SAR, synthesis, and modeling evaluation” (Bioorg Med Chem Lett, 2008).

Molecular target: Egl nine homolog 1 (Homo sapiens, UniProt Q9GZT9)
Assay: Inhibition of human PHD2 assessed as hydroxylation of Pro564 in human HIF-1alpha by TR-FRET assay

Egl nine homolog 1, sequence (Q9GZT9 whole entry): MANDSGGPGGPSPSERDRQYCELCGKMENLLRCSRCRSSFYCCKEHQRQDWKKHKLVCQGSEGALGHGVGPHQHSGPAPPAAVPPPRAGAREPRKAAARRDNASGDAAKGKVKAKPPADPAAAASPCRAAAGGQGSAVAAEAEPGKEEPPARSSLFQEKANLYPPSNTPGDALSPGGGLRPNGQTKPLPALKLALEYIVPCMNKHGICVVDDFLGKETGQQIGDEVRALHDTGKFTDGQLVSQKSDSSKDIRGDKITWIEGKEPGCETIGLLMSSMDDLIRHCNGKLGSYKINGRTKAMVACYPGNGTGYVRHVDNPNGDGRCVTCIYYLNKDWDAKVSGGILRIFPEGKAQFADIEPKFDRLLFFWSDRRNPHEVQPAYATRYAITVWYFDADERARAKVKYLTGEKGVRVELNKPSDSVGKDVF

Row | Structure (SMILES) | IC50
1 | CCOC(=O)Cc1cs/c(=N/C(=O)CS(=O)(=O)c2ccccc2)n1O | > 40 µM
2 | O=C(O)Cc1csc(NC(=O)CS(=O)(=O)c2ccccc2)n1 | > 40 µM
3 | O=C(O)Cc1cs/c(=N/C(=O)CCc2ccccc2)n1O | > 40 µM
4 | CC(C)(C(=O)O)c1cs/c(=N/C(=O)CS(=O)(=O)c2ccccc2)n1O | > 40 µM
5 | CCOC(=O)Cc1csc(NC(=O)CS(=O)(=O)c2ccccc2)n1 | > 40 µM
